The source made the active and inactive calls. The rule behind the calls is not given here.
What was measured:
Influenza A virus [1] = assay type: functional, organism-based; conditions: H3N2, 500 uM
Influenza B virus = assay: Antiviral activity against influenza B virus; assay type: functional, organism-based
Influenza A virus [2] = test system: Influenza A virus
Description: (§1) Antiviral activity against influenza A virus H3N2 assessed as inhibition of virus-induced cytopathic effect after 72 hrs by MTS assay

[3] = Cytotoxicity against MDCK cells assessed as changes in cell morphology after 72 hrs […]; assay type: cell-based, Canis lupus familiaris; conditions: dog
[4] = Selectivity index, ratio of MCC for MDCK cells to EC50 for influenza A virus H3N2; assay type: toxicity, cell-based; conditions: dog
Influenza A virus [5] = assay: microbe, parasite or virus in culture; conditions: H3N2, 72 h
Description: as §1

| SMILES | Activity (Influenza A virus [1]) | Activity (Influenza B virus) | EC50 (Influenza A virus [2]) [nM] | MCC at 72 h [3] [µM] | selectivity ratio [4] | EC50 (Influenza A virus [5]) [nM] |
| --- | --- | --- | --- | --- | --- | --- |
| CN1CCC23CC4CC(CC(C4)C2C1)C3 (stereo not given) | inactive | inactive | – | – | – | – |
| NC(=O)c1ncn([C@@H]2O[C@H](CO)[C@@H](O)[C@H]2O)n1 [RIBAVIRIN] | – | inactive | 8700 | 20 | – | – |
| NC12CC3CC(CC(C3)C1)C2 [AMANTADINE] | – | inactive | – | > 500 | > 250 | 2000 |
| C1CNC2C3CC4CC(C3)CC2(C1)C4 (stereo not given) | – | inactive | – | 439 | 106 | 4100 |
| CC(N)C12CC3CC(CC(C3)C1)C2 (stereo not given) [RIMANTADINE] | – | inactive | – | > 500 | – | 360 |
| CN1CC2C3CC4CC(C3)CC2(C4)C1 (stereo not given) | – | inactive | – | 83 | 35 | 2400 |
| C1CC23CC4CC(CC(C4)C2CN1)C3 (stereo not given) | inactive | inactive | – | – | – | – |
| CN1CCC2C3CC4CC(C3)CC2(C4)C1 (stereo not given) | inactive | inactive | – | – | – | – |
| C1C2CC3CC1CC1(CNCC31)C2 (stereo not given) | – | inactive | – | 94 | 200 | 500 |
| C1CC2C3CC4CC(C3)CC2(CN1)C4 (stereo not given) | – | inactive | – | 439 | > 732 | 600 |
| CCN1CCC23CC4CC(CC(C4)C2C1)C3 (stereo not given) | inactive | inactive | – | – | – | – |
| C1CC23CC4CC(CC(C4)C2N1)C3 (stereo not given) | – | inactive | – | 468 | 217 | 2200 |
| CN1CCCC23CC4CC(CC(C4)C12)C3 (stereo not given) | – | inactive | – | 83 | 19 | 4400 |
| CCN1CCC23CC4CC(CC(C4)C12)C3 (stereo not given) | – | inactive | – | 439 | 128 | 3400 |
| CN1CCC23CC4CC(CC(C4)C12)C3 (stereo not given) | – | inactive | – | 83 | 11 | 7700 |

Reference: ChEMBL document CHEMBL1152743, “Design and synthesis of 1,2-annulated adamantane piperidines with anti-influenza virus activity” (Bioorg Med Chem, 2009)
